From patent publication US11524966B1 (Valo Early Discovery, Inc., priority 2017, dated 2022)

Target: T1, USP28 (His-tagged USP28-FL-mammalian) (Homo sapiens, UniProt Q96RU2)
T1 construct: Expression of USP28 (1-1077)-TEV-6*His (pTT5 vector); made in house; host or cells: Expi293f cells (pTT5 vector)
T1 sequence (Q96RU2 1-1077): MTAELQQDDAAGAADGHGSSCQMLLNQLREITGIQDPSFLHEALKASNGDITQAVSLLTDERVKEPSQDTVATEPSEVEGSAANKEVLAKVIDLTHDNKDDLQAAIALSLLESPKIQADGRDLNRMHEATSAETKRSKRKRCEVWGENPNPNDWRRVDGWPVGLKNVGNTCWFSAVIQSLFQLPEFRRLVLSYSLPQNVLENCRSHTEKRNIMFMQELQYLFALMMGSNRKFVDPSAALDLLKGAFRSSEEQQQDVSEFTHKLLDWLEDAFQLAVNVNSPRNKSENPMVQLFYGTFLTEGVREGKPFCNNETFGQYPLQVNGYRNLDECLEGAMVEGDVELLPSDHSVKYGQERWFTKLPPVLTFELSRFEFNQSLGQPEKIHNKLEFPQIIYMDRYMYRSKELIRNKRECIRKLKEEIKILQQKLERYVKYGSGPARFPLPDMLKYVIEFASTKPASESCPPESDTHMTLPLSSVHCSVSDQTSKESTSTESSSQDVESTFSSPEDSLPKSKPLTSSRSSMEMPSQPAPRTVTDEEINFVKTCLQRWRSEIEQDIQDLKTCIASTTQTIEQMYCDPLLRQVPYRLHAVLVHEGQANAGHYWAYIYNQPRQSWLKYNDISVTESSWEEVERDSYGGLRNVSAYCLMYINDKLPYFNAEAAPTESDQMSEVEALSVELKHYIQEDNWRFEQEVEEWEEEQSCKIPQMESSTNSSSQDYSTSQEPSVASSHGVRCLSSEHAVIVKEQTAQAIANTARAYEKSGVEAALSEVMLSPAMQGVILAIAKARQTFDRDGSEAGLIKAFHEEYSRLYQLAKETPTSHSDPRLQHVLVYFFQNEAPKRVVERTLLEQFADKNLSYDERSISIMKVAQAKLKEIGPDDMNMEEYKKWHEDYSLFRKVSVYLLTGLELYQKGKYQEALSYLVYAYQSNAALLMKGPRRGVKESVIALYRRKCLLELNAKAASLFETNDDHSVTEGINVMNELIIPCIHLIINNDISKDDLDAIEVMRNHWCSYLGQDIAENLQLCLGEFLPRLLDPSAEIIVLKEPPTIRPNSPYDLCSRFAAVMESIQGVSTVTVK
Assay: Ubiquitin-Rhodamine 110 Assay for USP28 Activity, Example A-1(a)
Format: biochemical
Conditions: Ubiquitin-Rhodamine 110 assay, Example A-1(a); read-out: USP28 A-1(a) IC50 range
In short: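 Full-length His-tagged human USP28 (1-1077, Expi293f-expressed), […], with 25 nM Ub-Rh110 (<<Km) in pH 8.0 Tris buffer with BME, BGG, Triton X-100. 10-point dilutions (25 μM-1.3 nM), 45 min at room temperature, citric acid stop, fluorescence 485/535 nm; IC50 by 4-parameter fit.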

| SMILES | IC50 |
| --- | --- |
| CO[C@H]1CN(c2ccc3c(c2)CC[C@H](NC(=O)c2sc4nc(C)ccc4c2N)C3)C[C@@H]1N [Example 116, 3-amino-N-[(2S)-6-[(3S,4S)-3-amino-4-methoxypyrrolidin-1-yl}-1,2,3,4-tetrahydronaphthalen-2-yl]-6-methylthieno[2,3-b]pyridine-2-carboxamide] | 50 to 200 nM |
| CO[C@H]1CN(c2ccc3c(c2)CC[C@H](NC(=O)c2sc4nc(C)sc4c2N)C3)C[C@@H]1N [Example 133, 6-amino-N-[(2S)-6-[(3S,4S)-3-amino-4-methoxypyrrolidin-1-yl]-1,2,3,4-tetrahydronaphthalen-2-yl]-2-methylthieno[2,3-d][1,3]thiazole-5-carboxamide] | 50 to 200 nM |
